Source: article PMC11240139, “Exploring the antitumor potential of novel quinoline derivatives via tubulin polymerization inhibition in breast cancer; design, synthesis and molecular docking” (RSC Advances, 2024)

Key:
HCT-116 (colon cancer) = experiment: NCI-60 SRB cytotoxicity screen; assay type: cell-based; settings: Homo sapiens; HCT-116, single dose 10 μM; read-out: growth inhibition (GI%)
[1] = test system: EKVX (non-small cell lung cancer); experiment: NCI-60 SRB cytotoxicity screen; assay type: cell-based; settings: Homo sapiens, single dose 10 μM, read-out: growth inhibition (GI%)
U251 (CNS cancer) = experiment: NCI-60 SRB cytotoxicity screen; assay type: cell-based; settings: Homo sapiens, U-251; U251, single dose 10 μM; read-out: growth inhibition (GI%)
SF-295 (CNS cancer) = experiment: NCI-60 SRB cytotoxicity screen; assay type: cell-based; settings: Homo sapiens; SF-295, single dose 10 μM; read-out: growth inhibition (GI%)
[2] = test system: NCI-H322M (non-small cell lung cancer); experiment: NCI-60 SRB cytotoxicity screen; assay type: cell-based; settings: Homo sapiens, single dose 10 μM, read-out: growth inhibition (GI%)
HCT-15 (colon cancer) = experiment: NCI-60 SRB cytotoxicity screen; assay type: cell-based; settings: Homo sapiens; HCT-15, single dose 10 μM; read-out: growth inhibition (GI%)
[3] = test system: MDA-MB-231/ATCC (breast cancer); experiment: NCI-60 SRB cytotoxicity screen; assay type: cell-based; settings: Homo sapiens, MDA-MB-231, read-out: growth inhibition (GI%);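 note: growth inhibition in percent at a single 10 µM dose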
SF-268 (CNS cancer) = experiment: NCI-60 SRB cytotoxicity screen; assay type: cell-based; settings: Homo sapiens; SF-268, single dose 10 μM; read-out: growth inhibition (GI%)
HL-60(TB) (leukemia) = experiment: NCI-60 SRB cytotoxicity screen; assay type: cell-based; settings: Homo sapiens, single dose 10 μM, read-out: growth inhibition (GI%)
K-562 (leukemia) = experiment: NCI-60 SRB cytotoxicity screen; assay type: cell-based; settings: Homo sapiens; K-652 [sic], single dose 10 μM; read-out: growth inhibition (GI%)
CCRF-CEM (leukemia) = experiment: NCI-60 SRB cytotoxicity screen; assay type: cell-based; settings: Homo sapiens, single dose 10 μM, read-out: growth inhibition (GI%)
[4] = test system: NCI-H226 (non-small cell lung cancer); experiment: NCI-60 SRB cytotoxicity screen; assay type: cell-based; settings: Homo sapiens; NCI-H226, single dose 10 μM; read-out: growth inhibition (GI%)
DU-145 (prostate cancer) = experiment: NCI-60 SRB cytotoxicity screen; assay type: cell-based; settings: Homo sapiens; DU-145, single dose 10 μM; read-out: growth inhibition (GI%)
SK-OV-3 (ovarian cancer) = experiment: NCI-60 SRB cytotoxicity screen; assay type: cell-based; settings: Homo sapiens; SK-OV-3, single dose 10 μM; read-out: growth inhibition (GI%)
SK-MEL-2 (melanoma) = experiment: NCI-60 SRB cytotoxicity screen; assay type: cell-based; settings: Homo sapiens; SK-MEL-2, single dose 10 μM; read-out: growth inhibition (GI%)
HCC-2998 (colon cancer) = experiment: NCI-60 SRB cytotoxicity screen; assay type: cell-based; settings: Homo sapiens; HCC-2998, single dose 10 μM; read-out: growth inhibition (GI%)
SNB-75 (CNS cancer) = experiment: NCI-60 SRB cytotoxicity screen; assay type: cell-based; settings: Homo sapiens, SNB-75, SNB-75, single dose 10 μM; read-out: growth inhibition (GI%)
[5] = test system: HOP-62 (non-small cell lung cancer); experiment: NCI-60 SRB cytotoxicity screen; assay type: cell-based; settings: Homo sapiens; HOP-62, single dose 10 μM; read-out: growth inhibition (GI%)
[6] = test system: A549/ATCC (non-small cell lung cancer); experiment: NCI-60 SRB cytotoxicity screen; assay type: cell-based; settings: Homo sapiens, single dose 10 μM, read-out: growth inhibition (GI%)
OVCAR-8 (ovarian cancer) = experiment: NCI-60 SRB cytotoxicity screen; assay type: cell-based; settings: Homo sapiens; OVCAR-8, single dose 10 μM; read-out: growth inhibition (GI%)
UACC-257 (melanoma) = experiment: NCI-60 SRB cytotoxicity screen; assay type: cell-based; settings: Homo sapiens; UACC-257, single dose 10 μM; read-out: growth inhibition (GI%)
UACC-62 (melanoma) = experiment: NCI-60 SRB cytotoxicity screen; assay type: cell-based; settings: Homo sapiens; UACC-62, single dose 10 μM; read-out: growth inhibition (GI%)
HS 578T (breast cancer) = experiment: NCI-60 SRB cytotoxicity screen; assay type: cell-based; settings: Homo sapiens, single dose 10 μM, read-out: growth inhibition (GI%)
OVCAR-3 (ovarian cancer) = experiment: NCI-60 SRB cytotoxicity screen; assay type: cell-based; settings: Homo sapiens; OVCAR-3, single dose 10 μM; read-out: growth inhibition (GI%)
[7] = test system: HOP-92 (non-small cell lung cancer); experiment: NCI-60 SRB cytotoxicity screen; assay type: cell-based; settings: Homo sapiens; HOP-92, single dose 10 μM; read-out: growth inhibition (GI%)
T-47D (breast cancer) = experiment: NCI-60 SRB cytotoxicity screen; assay type: cell-based; settings: Homo sapiens, T47D, single dose 10 μM, read-out: growth inhibition (GI%)
PC-3 (prostate cancer) = experiment: NCI-60 SRB cytotoxicity screen; assay type: cell-based; settings: PC-3, single dose 10 μM; read-out: growth inhibition (GI%)
RPMI-8226 (leukemia) = experiment: NCI-60 SRB cytotoxicity screen; assay type: cell-based; settings: Homo sapiens; RPMI-8226, single dose 10 μM; read-out: growth inhibition (GI%)
UO-31 (renal cancer) = experiment: NCI-60 SRB cytotoxicity screen; assay type: cell-based; settings: Homo sapiens; UO-31, single dose 10 μM; read-out: growth inhibition (GI%)
OVCAR-4 (ovarian cancer) = experiment: NCI-60 SRB cytotoxicity screen; assay type: cell-based; settings: Homo sapiens; OVCAR-4, single dose 10 μM; read-out: growth inhibition (GI%)
RXF 393 (renal cancer) = experiment: NCI-60 SRB cytotoxicity screen; assay type: cell-based; settings: Homo sapiens; RXF 393, single dose 10 μM; read-out: growth inhibition (GI%)
COLO 205 (colon cancer) = experiment: NCI-60 SRB cytotoxicity screen; assay type: cell-based; settings: Homo sapiens; COLO 205, single dose 10 μM; read-out: growth inhibition (GI%)
OVCAR-5 (ovarian cancer) = experiment: NCI-60 SRB cytotoxicity screen; assay type: cell-based; settings: Homo sapiens; OVCAR-5, single dose 10 μM; read-out: growth inhibition (GI%)

Compound | inhibition at 10 µM (HCT-116 (colon cancer)) [%] | inhibition at 10 µM [1] [%] | inhibition at 10 µM (U251 (CNS cancer)) [%] | inhibition at 10 µM (SF-295 (CNS cancer)) [%] | inhibition at 10 µM [2] [%] | inhibition at 10 µM (HCT-15 (colon cancer)) [%] | inhibition at 10 µM [3] [%] | inhibition at 10 µM (SF-268 (CNS cancer)) [%] | inhibition at 10 µM (HL-60(TB) (leukemia)) [%] | inhibition at 10 µM (K-562 (leukemia)) [%] | inhibition at 10 µM (CCRF-CEM (leukemia)) [%] | inhibition at 10 µM [4] [%] | inhibition at 10 µM (DU-145 (prostate cancer)) [%] | inhibition at 10 µM (SK-OV-3 (ovarian cancer)) [%] | inhibition at 10 µM (SK-MEL-2 (melanoma)) [%] | inhibition at 10 µM (HCC-2998 (colon cancer)) [%] | melting point [°C] | inhibition at 10 µM (SNB-75 (CNS cancer)) [%] | inhibition at 10 µM [5] [%] | inhibition at 10 µM [6] [%] | further results
CCc1cccc2cc(C=CC(=O)c3cc(OC)c(OC)c(OC)c3)c(Cl)nc12 [Compound 3c, 3-(2-Chloro-8-ethylquinolin-3-yl)-1-(3,4,5-trimethoxyphenyl)prop-2-en-1-one] | 61.6 | 17.1 | 78.2 | 31.3 | 31.1 | 44.5 | 39.5 | 32.2 | 73.5 | 68.1 | 87.8 | > 100 | 29 | 17.4 | 44.5 | 63.8 | 140 to 142 | 61.7 | < 10 | 52.1 | inhibition at 10 µM (OVCAR-8 (ovarian cancer)): 84%; inhibition at 10 µM (UACC-257 (melanoma)): 43.6%; inhibition at 10 µM (UACC-62 (melanoma)): 41.9%; inhibition at 10 µM (HS 578T (breast cancer)): < 10%; inhibition at 10 µM (OVCAR-3 (ovarian cancer)): > 100%; inhibition at 10 µM [7]: 26.8%; inhibition at 10 µM (T-47D (breast cancer)): 72.8%; inhibition at 10 µM (PC-3 (prostate cancer)): 53.5%; inhibition at 10 µM (RPMI-8226 (leukemia)): 78.2%; inhibition at 10 µM (UO-31 (renal cancer)): 45%; inhibition at 10 µM (OVCAR-4 (ovarian cancer)): 42%; inhibition at 10 µM (RXF 393 (renal cancer)): 42.6%; inhibition at 10 µM (COLO 205 (colon cancer)): 18.4%; inhibition at 10 µM (OVCAR-5 (ovarian cancer)): 26.8%
CCc1cccc2cc(C3C=C(c4ccc(OC)c(OC)c4)NC(=S)N3)c(Cl)nc12 (stereo not drawn) [Compound 6b, 4-(2-Chloro-8-ethylquinolin-3-yl)-6-(3,4-dimethoxyphenyl)-3,4-dihydropyrimidine-2(1H)-thione] | 17.2 | < 10 | < 10 | < 10 | < 10 | < 10 | < 10 | 16.6 | 10.7 | 10.5 | 11 | 15.4 | < 10 | < 10 | < 10 | < 10 | 237 to 239 | < 10 | 11 | < 10 | inhibition at 10 µM (OVCAR-8 (ovarian cancer)): < 10%; inhibition at 10 µM (UACC-257 (melanoma)): < 10%; inhibition at 10 µM (UACC-62 (melanoma)): 10.3%; inhibition at 10 µM (HS 578T (breast cancer)): 12.9%; inhibition at 10 µM (OVCAR-3 (ovarian cancer)): < 10%; inhibition at 10 µM [7]: < 10%; inhibition at 10 µM (T-47D (breast cancer)): 24.9%; inhibition at 10 µM (PC-3 (prostate cancer)): < 10%; inhibition at 10 µM (RPMI-8226 (leukemia)): 36.1%; inhibition at 10 µM (UO-31 (renal cancer)): 37.2%; inhibition at 10 µM (OVCAR-4 (ovarian cancer)): 19.9%; inhibition at 10 µM (RXF 393 (renal cancer)): < 10%; inhibition at 10 µM (COLO 205 (colon cancer)): < 10%; inhibition at 10 µM (OVCAR-5 (ovarian cancer)): < 10%
CCc1cccc2cc(C3C=C(c4cc(OC)c(OC)c(OC)c4)NC(=S)N3)c(Cl)nc12 (stereo not drawn) [Compound 6c, 4-(2-Chloro-8-ethylquinolin-3-yl)-6-(3,4,5-trimethoxyphenyl)-3,4-dihydropyrimidine-2(1H)-thione] | 41.2 | 37.9 | 26.6 | 30 | 18.3 | 30.9 | 46.1 | 42.4 | 41.5 | 44.6 | 32.9 | 58 | 21.7 | < 10 | 10.2 | 26.1 | 235 to 237 | 23.2 | 10.5 | 26.3 | inhibition at 10 µM (OVCAR-8 (ovarian cancer)): 12.2%; inhibition at 10 µM (UACC-257 (melanoma)): 13.1%; inhibition at 10 µM (UACC-62 (melanoma)): 35.5%; inhibition at 10 µM (HS 578T (breast cancer)): 39.6%; inhibition at 10 µM (OVCAR-3 (ovarian cancer)): 14.2%; inhibition at 10 µM [7]: 28.3%; inhibition at 10 µM (T-47D (breast cancer)): 48.6%; inhibition at 10 µM (PC-3 (prostate cancer)): 46.2%; inhibition at 10 µM (RPMI-8226 (leukemia)): 57.6%; inhibition at 10 µM (UO-31 (renal cancer)): 67.7%; inhibition at 10 µM (OVCAR-4 (ovarian cancer)): 48.9%; inhibition at 10 µM (RXF 393 (renal cancer)): 40.6%; inhibition at 10 µM (COLO 205 (colon cancer)): 24.4%; inhibition at 10 µM (OVCAR-5 (ovarian cancer)): < 10%
